Laboratory results as given in US9023350B2, “Synergistic pharmaceutical composition useful for inhibiting corneal and retinal neovascularization (angiogenesis), and in other organs, in a human being or animals” (Association Civil de Estudios Superiores, priority 2007, dated 2015).

Legend:
corneal neovasculization = experiment: Corneal neovasculization model (NaOH alkali burn of the cornea), neovasculization index; type: in vivo; conditions: rabbit, during 35 days of evaluation, single iv dose
Method: After anaesthetizing a Newzealender breed white rabbit of 3 kg. with a midazolam and ketamine hydrochloride with an intramuscular injection, installation of topical proparacaine was performed (Anestalcon, Alcon, Argentina) in the eye and a blepharostat was place on the right eye. During 20 seconds 7 mm diameter dicks of Whatman filter paper were soaked in a 1N NaOH solution. The paper disk was placed on the central part of the cornea with a pincer leaving it there for 2 minutes. Immediately afterwards the injured zone was washed with 15 ml saline physiological solution (CINa, 0.9%) during one minute. The same process was performed on 12 rabbits of the same color, breed and weight.
Formation of neovessels were quantified with a value of 0 to 4 to each quadrant according to the centripetal growth of the longest vessel (in 1 mm increases i.e, 0=0 mm; 1=equal or less than 1 mm; 2=more than 1 and up to 2 mm; 3=more than 2 and up to 3 mm; 4=more than 3 mm). The sum of the four quadrants provided the neovasculization index (INV) for that eye.
24 hs after the lesion was caused the first clinical examination was performed and was then continued every three days. This was carried out using an operator microscope or a surgical magnifying glass and photographs were taken with a digital camera Nikon Coolpix 5700. The INV register was performed on days 9, 15, 21 and 35 on all the animals. […]

[1] = test system: CT26 cells (colon adenocarcinoma); experiment: Oncological angiogenesis model, subcutaneous CT26 tumors; type: in vivo, Balb/c rats; conditions: day 31; single iv dose on day 7: Suramine 20 mg/Kg, Bevacizumab 5 mg/Kg, suramab = Suramine 20 mg/Kg + Bevacizumab 5 mg/Kg
Method: 5×10^5 CT26 cells (colon adenocarcinoma) were inoculated subcutaneously, in the dorsal-lateral region of Balb/c rats. On the 7th day of inoculation 4 groups of animals were formed that received different treatments via iv (in the tail vein).
• a. […] Control group: (n=7) PS 100 μl under slow infusion.
The tumors were measured three times per week. The following formula was used to calculate the tumor volume: […]. The animals having tumors volumes greater or equal to 8000 mm3 were sacrificed.
Survival was considered till day 35 post tumor inoculation.

Compound	effect on corneal neovasculization (in words) (corneal neovasculization)	tumor volume compared to the control group (in words) [1]
Bevacizumab: monoclonal antibody, humanized and recombinant, that binds to VEGF-A	inhibiting effect on neovasculization	reduction of tumor volume compared to the control group
Cc1ccc(C(=O)Nc2ccc(S(=O)(=O)O)c3cc(S(=O)(=O)O)cc(S(=O)(=O)O)c23)cc1NC(=O)c1cccc(NC(=O)Nc2cccc(C(=O)Nc3cc(C(=O)Nc4ccc(S(=O)(=O)O)c5cc(S(=O)(=O)O)cc(S(=O)(=O)O)c45)ccc3C)c2)c1 [Suramine]	inhibiting effect on neovasculization	reduction of tumor volume compared to the control group
